Target: T1, KCNJ5^L168R (Homo sapiens, UniProt P48544, L168R)
T1 construct: expressed in transfected cells
T1 sequence (P48544 1-419 L168R): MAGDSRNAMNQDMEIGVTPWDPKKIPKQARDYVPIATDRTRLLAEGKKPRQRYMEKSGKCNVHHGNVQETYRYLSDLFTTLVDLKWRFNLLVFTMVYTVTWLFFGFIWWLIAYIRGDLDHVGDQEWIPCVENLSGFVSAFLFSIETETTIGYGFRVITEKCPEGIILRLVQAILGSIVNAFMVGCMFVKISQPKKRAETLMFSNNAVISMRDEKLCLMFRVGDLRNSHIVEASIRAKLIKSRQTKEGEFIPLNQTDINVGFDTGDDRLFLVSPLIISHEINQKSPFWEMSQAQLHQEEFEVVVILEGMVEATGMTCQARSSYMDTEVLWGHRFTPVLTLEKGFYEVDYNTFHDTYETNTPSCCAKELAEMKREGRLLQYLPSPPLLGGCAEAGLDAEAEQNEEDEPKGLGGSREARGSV
Test: Cell viability assay (ATP, CellTiter-Glo): rescue of KCNJ5^L168R-induced lethality in inducible HEK293 cells
Format: cell-based

Compound	L168R maximum inhibition (10-point dilution 20 to 0.0391 μM, N=3, four-parameter fit) [%]	dose response on KCNJ5^L168R (tested at 1.1, 3.3 and 10 μM)	inhibition of KCNJ5^L168R by synthesized macrolide derivatives (tested as in FIG. 7 (FIGS. 9 and 10))
CC[C@H]1OC(=O)[C@H](C)[C@@H](O[C@H]2C[C@@](C)(OC)[C@@H](O)[C@H](C)O2)[C@H](C)[C@@H](O[C@@H]2O[C@H](C)C[C@H](N(C)C)[C@H]2O)[C@](C)(O)C[C@@H](C)/C(=N\OCOCCOC)[C@H](C)[C@@H](O)[C@]1(C)O [Roxithromycin, roxithromycin]	81.39	showed a dose response	–
N-demethyl-N-isobutyl-8,9-anhydroerythromycin A 6,9-hemiacetal [PLUX37]	–	–	significant inhibition
